In patent US20240374591A1, “CEREBLON BINDING COMPOUNDS, COMPOSITIONS THEREOF, AND METHODS OF TREATMENT THEREWITH” (CELGENE CORPORATION, priority 2021, published 2024):
Counter-ions that a name gives are not always drawn.

Biological target: T1, AR in VCaP cells (Homo sapiens, UniProt P10275)
T1 construct: endogenous in cells; host or cells: VCaP cells
T1 sequence (P10275 1-920): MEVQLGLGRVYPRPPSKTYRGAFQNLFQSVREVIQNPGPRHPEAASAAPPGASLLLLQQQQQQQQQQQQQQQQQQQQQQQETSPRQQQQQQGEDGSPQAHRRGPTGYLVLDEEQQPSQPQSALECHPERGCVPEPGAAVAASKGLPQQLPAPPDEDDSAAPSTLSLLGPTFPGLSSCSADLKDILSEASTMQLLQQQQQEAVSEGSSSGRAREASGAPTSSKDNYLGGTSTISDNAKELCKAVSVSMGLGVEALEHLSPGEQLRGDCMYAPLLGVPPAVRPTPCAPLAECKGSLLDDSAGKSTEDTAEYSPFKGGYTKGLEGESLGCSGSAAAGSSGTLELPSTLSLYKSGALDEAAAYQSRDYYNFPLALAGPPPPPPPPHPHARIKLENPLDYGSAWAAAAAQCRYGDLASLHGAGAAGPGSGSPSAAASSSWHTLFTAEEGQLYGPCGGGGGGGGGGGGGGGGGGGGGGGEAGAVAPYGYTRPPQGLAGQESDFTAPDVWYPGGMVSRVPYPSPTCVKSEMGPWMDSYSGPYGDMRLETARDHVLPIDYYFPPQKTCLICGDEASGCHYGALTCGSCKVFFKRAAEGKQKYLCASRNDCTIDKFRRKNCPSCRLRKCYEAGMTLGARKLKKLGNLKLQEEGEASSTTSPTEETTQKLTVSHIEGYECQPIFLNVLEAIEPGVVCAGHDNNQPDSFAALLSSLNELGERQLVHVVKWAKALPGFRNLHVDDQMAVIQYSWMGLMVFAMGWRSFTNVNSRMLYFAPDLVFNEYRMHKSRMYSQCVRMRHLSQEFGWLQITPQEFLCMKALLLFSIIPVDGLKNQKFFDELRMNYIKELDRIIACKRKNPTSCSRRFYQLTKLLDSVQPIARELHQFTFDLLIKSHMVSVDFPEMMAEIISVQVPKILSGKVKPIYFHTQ
Assay: VCAP AR Degradation Assay (AR ELISA, 24 h)
Assay type: cell-based
Details: for DC50: concentration giving 50% AR degradation vs DMSO control; for remaining activity at up to 5 µM: lowest measured AR level normalized to DMSO control, top concentration 5 μM, read-out: Y
Method: VCAP AR Degradation Assay. Test compounds were pre-dispensed into a Corning CellBind 96-well clear bottom plate (Cat #3300) using an acoustic dispenser to make a 10-point concentration series at 1:3 dilution for each compound. The final top concentration of each compound was 5 μM. DMSO at a final concentration of 0.1% was used as a control. VCaP cells cultured in DMEM with 8% fetal bovine serum (FBS) were seeded at 50K cells per well in a 200 μL volume into the compound plate and incubated at 37° C. in a CO2 incubator for 24 h. The medium was carefully removed from the cells and the plate was placed on ice. One hundred μL of ice-cold 1× cell lysis buffer from Cell Signaling Technologies (Cat #9803) was added to each well of the cells and the plate was incubated at 4° C. on a shaker for 1 h. Fifteen μL of cell lysate was used for AR ELISA detection using a PathScan Total Sandwich AR ELISA kit (Cell Signaling Technology, Cat #12580). AR levels in compound-treated wells were normalized to that of DMSO control and expressed as percent of control (PoC) (y). A Four Parameter Logistic Model (Sigmoidal Dose-Response Model) was used to determine the compound's DC50, and EC50, using the following equation: […]
The lowest measured AR level normalized to DMSO control in response to compound treatment, termed Y value, was used to characterize the compound-mediated AR degradation efficiency.

SMILES	DC50 [nM]	remaining activity at up to 5 µM [%]
C[C@@H]1C[C@H](OCC[C@H]2CC[C@H](N3C(=S)N(c4cnc(C#N)c(C(F)(F)F)c4)C(=O)C3(C)C)CC2)C[C@H](C)N1CC(=O)Nc1ccc(C2CCC(=O)NC2=O)nc1 (stereo partly drawn) [Cmpd 28, 2-((2R,4r,6S)-4-(2-((trans)-4-(3-(6-Cyano-5-(trifluoromethyl)pyridin-3-yl)-5,5-dimethyl-4-oxo-2-thioxoimidazolidin-1-yl)cyclohexyl)ethoxy)-2,6-dimethylpiperidin-1-yl)-N-(6-(2,6-dioxopiperidin-3-yl)pyridin-3-yl)acetamide]	≤ 5	20 to 30
CC1(C)C(=O)N(c2cnc(C#N)c(C(F)(F)F)c2)C(=S)N1[C@H]1CC[C@H](OCCN2CCN(CC(=O)Nc3ccc(C4CCC(=O)NC4=O)nc3)[C@@H](C(F)(F)F)C2)CC1 (stereo partly drawn) [Cmpd 24, 2-((R)-4-(2-(((trans)-4-(3-(6-Cyano-5-(trifluoromethyl)pyridin-3-yl)-5,5-dimethyl-4-oxo-2-thioxoimidazolidin-1-yl)cyclohexyl)oxy)ethyl)-2-(trifluoromethyl)piperazin-1-yl)-N-(6-(2,6-dioxopiperidin-3-yl)pyridin-3-yl)acetamide]	≤ 5	20 to 30
C[C@@H]1CN(CCC[C@H]2CC[C@H](N3C(=S)N(c4ccc(C#N)c(Cl)c4)C(=O)C3(C)C)CC2)C[C@H](C)N1CC(=O)Nc1ccc(C2CCC(=O)NC2=O)nc1 (stereo partly drawn) [Cmpd 10, 2-((2R,6S)-4-(3-(trans-4-(3-(3-Chloro-4-cyanophenyl)-5,5-dimethyl-4-oxo-2-thioxoimidazolidin-1-yl)cyclohexyl)propyl)-2,6-dimethylpiperazin-1-yl)-N-(6-(2,6-dioxopiperidin-3-yl)pyridin-3-yl)acetamide hydrochloride]	10 to 100	30 to 70
CC1(C)C(=O)N(c2ccc(C#N)c(C(F)(F)F)c2)C(=S)N1[C@H]1CC[C@H](OCCC2CCN(CC(=O)Nc3ccc(C4CCC(=O)NC4=O)nc3)CC2(F)F)CC1 (stereo partly drawn) [Cmpd 31, 2-(4-(2-(((trans)-4-(3-(4-Cyano-3-(trifluoromethyl)phenyl)-5,5-dimethyl-4-oxo-2-thioxoimidazolidin-1-yl)cyclohexyl)oxy)ethyl)-3,3-difluoropiperidin-1-yl)-N-(6-(2,6-dioxopiperidin-3-yl)pyridin-3-yl)acetamide]	≤ 5	0 to 20
CC1(C)C(=O)N(c2cnc(C#N)c(C(F)(F)F)c2)C(=S)N1[C@H]1CC[C@H](OCCC2CCN(CC(=O)Nc3ccc(C4CCC(=O)NC4=O)nc3)CC2(F)F)CC1 (stereo partly drawn) [Cmpd 32, 2-(4-(2-(((trans)-4-(3-(6-Cyano-5-(trifluoromethyl)pyridin-3-yl)-5,5-dimethyl-4-oxo-2-thioxoimidazolidin-1-yl)cyclohexyl)oxy)ethyl)-3,3-difluoropiperidin-1-yl)-N-(6-(2,6-dioxopiperidin-3-yl)pyridin-3-yl)acetamide]	≤ 5	0 to 20
C[C@@H]1CN(CCCO[C@H]2CC[C@H](N3C(=S)N(c4ccc(C#N)c(Cl)c4)C(=O)C3(C)C)CC2)C[C@H](C)N1CC(=O)Nc1ccc(C2CCC(=O)NC2=O)nc1 (stereo partly drawn) [Cmpd 7, 2-((2R,6S)-4-(3-((trans-4-(3-(3-Chloro-4-cyanophenyl)-5,5-dimethyl-4-oxo-2-thioxoimidazolidin-1-yl)cyclohexyl)oxy)propyl)-2,6-dimethylpiperazin-1-yl)-N-(6-(2,6-dioxopiperidin-3-yl)pyridin-3-yl)acetamide hydrochloride]	≤ 5	0 to 20
C[C@@H]1C[C@H](OCCO[C@H]2CC[C@H](N3C(=S)N(c4cnc(C#N)c(C(F)(F)F)c4)C(=O)C3(C)C)CC2)C[C@H](C)N1CC(=O)Nc1ccc(C2CCC(=O)NC2=O)nc1 (stereo partly drawn) [Cmpd 30, 2-((2R,4r,6S)-4-(2-(((trans)-4-(3-(6-Cyano-5-(trifluoromethyl)pyridin-3-yl)-5,5-dimethyl-4-oxo-2-thioxoimidazolidin-1-yl)cyclohexyl)oxy)ethoxy)-2,6-dimethylpiperidin-1-yl)-N-(6-(2,6-dioxopiperidin-3-yl)pyridin-3-yl)acetamide]	≤ 5	0 to 20
